The target in one experiment is KAT-5 (Homo sapiens (Human), UniProt Q92993). The experiment in a line: KAT-5 biochemical inhibition assay (SAMDI mass spectrometry). The method in brief: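 Acetylation of 1 μM peptide by 9 nM enzyme with 0.5 μM acetyl-CoA (final) was run 90 min at 25° C in Tris pH 8.0 buffer with DTT, after compound preincubation at 2% DMSO. Formic acid stopped the reaction, and product was quantified by SAMDI mass spectrometry to derive IC50.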

A further experiment concerns the target KAT-7 (Homo sapiens (Human), UniProt O95251). The experiment in a line: KAT-7 biochemical inhibition assay (SAMDI mass spectrometry). In a few lines: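 Read-out was SAMDI time-of-flight MS of formic acid-quenched reactions (0.5% final). Compound dilutions (2% DMSO final) were pre-incubated with 6 nM KAT-7 in 50 mM Tris pH 8.0 with 1 mM DTT, then given 1 μM peptide substrate and 2 μM acetyl-CoA for 120 min at 25 °C. IC50 values were derived.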

For the next experiment, the target named is KAT-8 (Homo sapiens (Human), UniProt Q9H7Z6). The experiment can be described thus: KAT-8 biochemical inhibition assay (SAMDI mass spectrometry). In a few lines: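 Acetylation of 1 μM peptide substrate with 5 μM acetyl-CoA by 12.5 nM enzyme, compound pre-incubated, 2% DMSO, Tris pH 8.0 buffer with DTT, 25 °C for 90 min. Quench with 0.5% formic acid; product read by SAMDI mass spectrometry to give IC50.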
Chain of KAT-8 (Q9H7Z6 other isoform, or with tags, fused parts or gaps): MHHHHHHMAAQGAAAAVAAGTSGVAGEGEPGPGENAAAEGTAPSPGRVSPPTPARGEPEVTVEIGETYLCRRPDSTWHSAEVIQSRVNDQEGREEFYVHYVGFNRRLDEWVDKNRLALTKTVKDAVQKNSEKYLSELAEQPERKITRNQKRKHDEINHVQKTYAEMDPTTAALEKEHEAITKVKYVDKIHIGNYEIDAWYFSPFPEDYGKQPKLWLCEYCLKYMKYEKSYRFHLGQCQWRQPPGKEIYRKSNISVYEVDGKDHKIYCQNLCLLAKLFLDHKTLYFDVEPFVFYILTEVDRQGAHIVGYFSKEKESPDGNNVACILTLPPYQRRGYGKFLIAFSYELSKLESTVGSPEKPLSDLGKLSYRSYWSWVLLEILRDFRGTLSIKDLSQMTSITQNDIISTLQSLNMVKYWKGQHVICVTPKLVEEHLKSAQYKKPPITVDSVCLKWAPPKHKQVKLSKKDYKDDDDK

A further experiment addresses KAT-6A (Homo sapiens (Human), UniProt Q92794). The experiment in a line: KAT-6A biochemical inhibition assay (SAMDI mass spectrometry). The method in brief: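 IC50 values came from SAMDI time-of-flight mass spectrometry after formic acid quench (0.5% final). Acetylation ran 90 min at 25 °C with 1 μM acetyl coenzyme A and 1 μM peptide substrate, following compound pre-incubation with 12.5 nM KAT-6A in Tris buffer pH 8.0 containing DTT, 2% DMSO final.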

As a reminder, the IC50 is the concentration at which inhibition is half-maximal. The low end stands for greater potency in that assay, the high end for weaker potency in that assay.

The structures appear in SMILES notation. A value given as a limit tells only on which side of the number the result lay.

Chain of KAT-6A (Q92794 other isoform, or with tags, fused parts or gaps): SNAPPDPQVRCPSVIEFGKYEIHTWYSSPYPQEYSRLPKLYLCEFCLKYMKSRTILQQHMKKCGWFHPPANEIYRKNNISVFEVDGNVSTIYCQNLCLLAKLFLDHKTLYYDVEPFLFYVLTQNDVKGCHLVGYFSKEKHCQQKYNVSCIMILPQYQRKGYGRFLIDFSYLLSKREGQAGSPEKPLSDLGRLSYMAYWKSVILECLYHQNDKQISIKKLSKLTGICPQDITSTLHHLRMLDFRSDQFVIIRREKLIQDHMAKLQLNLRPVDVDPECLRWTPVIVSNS
Chain of KAT-5 (Q92993 other isoform, or with tags, fused parts or gaps): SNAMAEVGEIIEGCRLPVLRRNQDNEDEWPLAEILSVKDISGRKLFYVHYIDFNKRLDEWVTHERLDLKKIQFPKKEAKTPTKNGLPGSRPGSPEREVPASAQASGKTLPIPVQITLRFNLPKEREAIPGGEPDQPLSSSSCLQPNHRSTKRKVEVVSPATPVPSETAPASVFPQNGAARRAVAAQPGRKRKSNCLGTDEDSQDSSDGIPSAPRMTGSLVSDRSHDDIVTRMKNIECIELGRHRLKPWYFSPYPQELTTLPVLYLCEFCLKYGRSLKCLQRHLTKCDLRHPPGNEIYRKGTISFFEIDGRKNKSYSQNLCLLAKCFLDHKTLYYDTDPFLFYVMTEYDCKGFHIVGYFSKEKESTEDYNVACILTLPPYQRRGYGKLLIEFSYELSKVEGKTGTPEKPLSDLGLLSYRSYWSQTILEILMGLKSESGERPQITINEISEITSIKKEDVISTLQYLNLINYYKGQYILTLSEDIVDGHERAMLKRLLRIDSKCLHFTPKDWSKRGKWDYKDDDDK
Chain of KAT-7 (O95251 other isoform, or with tags, fused parts or gaps): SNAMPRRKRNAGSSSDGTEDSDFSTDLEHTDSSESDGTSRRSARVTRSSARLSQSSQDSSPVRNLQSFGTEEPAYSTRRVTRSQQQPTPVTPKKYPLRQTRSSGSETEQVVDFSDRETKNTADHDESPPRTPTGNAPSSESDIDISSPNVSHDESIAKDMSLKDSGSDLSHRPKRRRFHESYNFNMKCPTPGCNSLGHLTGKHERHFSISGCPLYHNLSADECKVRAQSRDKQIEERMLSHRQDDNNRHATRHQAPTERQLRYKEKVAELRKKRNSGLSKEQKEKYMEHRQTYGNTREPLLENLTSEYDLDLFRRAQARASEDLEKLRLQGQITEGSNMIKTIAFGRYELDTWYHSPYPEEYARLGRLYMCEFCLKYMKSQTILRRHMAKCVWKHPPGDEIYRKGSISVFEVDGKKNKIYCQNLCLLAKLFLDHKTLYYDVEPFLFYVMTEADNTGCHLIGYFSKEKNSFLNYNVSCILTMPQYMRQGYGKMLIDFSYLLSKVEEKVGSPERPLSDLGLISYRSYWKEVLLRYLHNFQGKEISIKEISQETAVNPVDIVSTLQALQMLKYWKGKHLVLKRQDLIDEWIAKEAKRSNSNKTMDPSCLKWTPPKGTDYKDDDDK

`CCN(C)C(=O)NC1CCC(CS(=O)(=O)NNC(=O)c2cc(-c3cn(C)cn3)cc(Cl)c2F)C1` (stereo not drawn) [Compound I-291]: the IC50 on KAT-5 was less than 10 µM; against KAT-7, less than 10 µM; on KAT-8, 10 to 50 µM; against KAT-6A it was 10 to 50 µM.
Take `CN(C)C(=O)N(C)C1CCCC(CS(=O)(=O)NNC(=O)c2cc(-c3cn(C)cn3)cc(Cl)c2F)C1` (stereo not drawn) [Compound I-292]: the IC50 was less than 10 µM on KAT-5, less than 10 µM against KAT-7, 10 to 50 µM at KAT-8 and less than 10 µM at KAT-6A.
In the case of `CCNC(=O)N(C)C1CCCC(CS(=O)(=O)NNC(=O)c2cc(-c3cn(C)cn3)cc(Cl)c2F)C1` (stereo not drawn) [Compound I-293], the IC50 was less than 10 µM at KAT-5, less than 10 µM against KAT-7, 10 to 50 µM at KAT-8 and less than 10 µM against KAT-6A.
With `CCC(=O)N(C)C1CCCC(CS(=O)(=O)NNC(=O)c2cc(-c3cn(C)cn3)cc(Cl)c2F)C1` (stereo not drawn) [Compound I-294], the IC50 was less than 10 µM at KAT-5, less than 10 µM at KAT-7, 10 to 50 µM against KAT-8 and less than 10 µM against KAT-6A.
Take `CN(C(=O)C1CCC1)C1CCCC(CS(=O)(=O)NNC(=O)c2cc(-c3cn(C)cn3)cc(Cl)c2F)C1` (stereo not drawn) [Compound I-295]: the IC50 was less than 10 µM against KAT-5, less than 10 µM against KAT-7, 10 to 50 µM at KAT-8 and less than 10 µM against KAT-6A.
In the case of `CN(C(=O)OC(C)(C)C)C1CCC(CS(=O)(=O)NNC(=O)c2cc(-c3cn(C)cn3)cc(Cl)c2F)CC1` (stereo not drawn) [Compound I-296], the IC50 against KAT-5 is less than 10 µM; at KAT-7, less than 10 µM; on KAT-8 it was 10 to 50 µM; against KAT-6A, less than 10 µM.
`CNC1CCC(CS(=O)(=O)NNC(=O)c2cc(-c3cn(C)cn3)cc(Cl)c2F)CC1` (stereo not drawn) [Compound I-297]: the IC50 at KAT-5 is 10 to 50 µM; against KAT-7, less than 10 µM; against KAT-8 it was 10 to 50 µM; at KAT-6A it was 10 to 50 µM.
For the molecule `Cn1cnc(-c2cc(Cl)c(F)c(C(=O)NNS(=O)(=O)C[C@H]3C[C@H]4CC[C@@H]3O4)c2)c1` [Compound I-298], the IC50 was less than 10 µM on KAT-5, less than 10 µM on KAT-7, 10 to 50 µM at KAT-8 and less than 10 µM against KAT-6A.
Consider `Cn1cnc(-c2cc(Cl)c(F)c(C(=O)NNS(=O)(=O)C[C@@H]3C[C@H]4CC[C@@H]3O4)c2)c1` [Compound I-299], for which the IC50 at KAT-5 was less than 10 µM; at KAT-7, less than 10 µM; on KAT-8, 10 to 50 µM; on KAT-6A, less than 10 µM.
As to `Cn1cnc(-c2cc(Cl)c(F)c(C(=O)NNS(=O)(=O)C[C@H]3CCC[C@@H](O)C3)c2)c1` [Compound I-300], the IC50 at KAT-5 was less than 10 µM; on KAT-7, less than 10 µM; on KAT-8, 10 to 50 µM; at KAT-6A, less than 10 µM.
Regarding `Cn1cnc(-c2cc(Cl)c(F)c(C(=O)NNS(=O)(=O)c3cccnc3)c2)c1` [Compound I-301], the IC50 is 10 to 50 µM at KAT-5, less than 10 µM against KAT-7, 10 to 50 µM against KAT-8 and less than 10 µM on KAT-6A.
For `CC1CCCC(CS(=O)(=O)NNC(=O)c2cc(-c3cn(C)cn3)cc(Cl)c2F)C1` (stereo not drawn) [Compound I-302], the IC50 against KAT-5 was less than 10 µM; on KAT-7, less than 10 µM; against KAT-8, 10 to 50 µM; against KAT-6A, less than 10 µM.
On to `CC1CCN(C(=O)OC(C)(C)C)CC1CS(=O)(=O)NNC(=O)c1cc(-c2cn(C)cn2)cc(Cl)c1F` (stereo not drawn) [Compound I-303], for which the IC50 on KAT-5 is less than 10 µM; against KAT-7, less than 10 µM; against KAT-8, 10 to 50 µM; at KAT-6A, 10 to 50 µM.
In the case of `Cn1cnc(-c2cc(Cl)c(F)c(C(=O)NNS(=O)(=O)c3cscn3)c2)c1` [Compound I-304], the IC50 on KAT-5 was less than 10 µM; at KAT-7, less than 10 µM; against KAT-8 it was 10 to 50 µM; against KAT-6A, less than 10 µM.
For the molecule `Cn1cnc(-c2ccc(F)c(C(=O)NNS(=O)(=O)C[C@H]3CCC[C@H](O)C3)c2)c1` [Compound I-305], the IC50 at KAT-5 was 10 to 50 µM; at KAT-7, less than 10 µM; against KAT-8 it was 10 to 50 µM; against KAT-6A it was 10 to 50 µM.
`Cn1cnc(-c2cc(Cl)c(F)c(C(=O)NNS(=O)(=O)C[C@H]3CCC[C@H](O)C3)c2)c1` [Compound I-306]: the IC50 against KAT-5 is less than 10 µM; on KAT-7 it was less than 10 µM; against KAT-8 it was 10 to 50 µM; on KAT-6A it was less than 10 µM.
Regarding `CC1CCNCC1CS(=O)(=O)NNC(=O)c1cc(-c2cn(C)cn2)cc(Cl)c1F` (stereo not drawn) [Compound I-307], the IC50 against KAT-5, at KAT-7, on KAT-8 and on KAT-6A was 10 to 50 µM in each case.
Consider `Cn1cnc(-c2cc(Cl)c(F)c(C(=O)NNS(=O)(=O)CC3CC4CCC3C4)c2)c1` (stereo not drawn) [Compound I-308], for which the IC50 against KAT-5, on KAT-7, against KAT-8 and against KAT-6A was less than 10 µM each time.
With `Cn1cnc(-c2cc(Cl)c(F)c(C(=O)NNS(=O)(=O)c3ccccc3Cl)c2)c1` [Compound I-309], the concentration for half-maximal inhibition (IC50) against KAT-5 was less than 10 µM; against KAT-7 it was less than 10 µM; against KAT-8, 10 to 50 µM; against KAT-6A it was less than 10 µM.
As to `CN1CCN([C@H]2CC[C@@H](CS(=O)(=O)NNC(=O)c3cc(-c4cn(C)cn4)cc(Cl)c3F)CC2)C1=O` [Compound I-310], the IC50 against KAT-5 is less than 10 µM; against KAT-7 it was less than 10 µM; against KAT-8 it was 10 to 50 µM; against KAT-6A, less than 10 µM.
For the molecule `CNC(=O)Cn1nc(-c2cc(Cl)c(F)c(C(=O)NNS(=O)(=O)CC3CCCCC3)c2)cc1C` [Compound I-311], the IC50 was less than 10 µM against KAT-5, less than 10 µM against KAT-7, 10 to 50 µM at KAT-8 and 10 to 50 µM on KAT-6A.
On to `CN1CCN([C@H]2C[C@H](CS(=O)(=O)NNC(=O)c3cc(-c4cn(C)cn4)cc(Cl)c3F)C2)C1=O` [Compound I-312], for which the IC50 at KAT-5 is less than 10 µM; at KAT-7 it was less than 10 µM; against KAT-8 it was 10 to 50 µM; against KAT-6A, less than 10 µM.
Take `CC1CCC(CS(=O)(=O)NNC(=O)c2cc(-c3cn(C)cn3)cc(Cl)c2F)CC1` (stereo not drawn) [Compound I-313]: the IC50 was less than 10 µM against KAT-5, less than 10 µM at KAT-7, 10 to 50 µM at KAT-8 and less than 10 µM on KAT-6A.
For the molecule `CN(C)C(=O)CS(=O)(=O)NNC(=O)c1cc(-c2cn(C)cn2)cc(Cl)c1F` [Compound I-314], the concentration for half-maximal inhibition (IC50) against KAT-5 is 10 to 50 µM; on KAT-7, less than 10 µM; against KAT-8 it was 10 to 50 µM; at KAT-6A, 10 to 50 µM.
`Cn1cnc(-c2cc(Cl)c(F)c(C(=O)NNS(=O)(=O)c3ccc(F)cc3)c2)c1` [Compound I-316]: the IC50 against KAT-5 was less than 10 µM; against KAT-7, less than 10 µM; at KAT-8 it was 10 to 50 µM; at KAT-6A, less than 10 µM.
In the case of `CN(C(=O)C1CCC1)C1CCC(CS(=O)(=O)NNC(=O)c2cc(-c3cn(C)cn3)cc(Cl)c2F)CC1` (stereo not drawn) [Compound I-317], the IC50 against KAT-5 is less than 10 µM; on KAT-7 it was less than 10 µM; at KAT-8 it was 10 to 50 µM; against KAT-6A it was less than 10 µM.
As for `CN1CCN([C@H]2CC[C@H](CS(=O)(=O)NNC(=O)c3cc(-c4cn(C)cn4)cc(Cl)c3F)CC2)C1=O` [Compound I-319], the IC50 against KAT-5 is less than 10 µM; at KAT-7, less than 10 µM; against KAT-8, 10 to 50 µM; against KAT-6A it was less than 10 µM.

Values taken from patent US11685732B2, “MYST family histone acetyltransferase inhibitors” (Epizyme, Inc., priority 2017, dated 2023).
